Results taken from article PMC4791274, “Cerdulatinib, a novel dual SYK/JAK kinase inhibitor, has broad anti-tumor activity in both ABC and GCB types of diffuse large B cell lymphoma” (Oncotarget, 2015).

Assays:
MST1 = details: biochemical assay; cited from earlier work
TYK2 = details: biochemical assay; cited from earlier work
CHK1 = details: biochemical assay; cited from earlier work
p-SYK = assay: immunoblotting of p-SYK in BCR-stimulated DLBCL cell lines; format: cell-based; details: 3 μM, anti IgM/IgG stimulated, all five cell lines
Method: Immunoblotting were performed as previously described. Antibodies including total STAT3, SYK, PLCγ2, AKT, ERK1/2, PARP, caspase 3, and phosphorylated STAT3 (S727), STAT3 (Y705), SYK (Y525/526), PLCγ2 (Y759), PLCγ2 (Y1217), AKT (S473), ERK1/2 (Y204) and RB (S807/811) were purchased from Cell Signaling (Danvers, MA). Cyclin E antibody was purchased from Santa Cruz Biotechnology (Dallas, TX), and β-actin antibody was purchased from Sigma-Aldrich (St Louis, MO). Antibodies used in phosphoflow assay, including phosphorylated STAT3 (S727), SYK (Y525/526), PLCγ2 (Y759), AKT (S473), and ERK1/2 (Y204) were purchased from BD Biosciences (San Jose, CA).

MARK1 = details: biochemical assay; cited from earlier work
TSSK = details: biochemical assay; cited from earlier work
DLBCL cell lines = assay: annexin V / 7-AAD cell viability by flow cytometry; format: cell-based; details: all tested cell lines with the exception of LY18; up to 72 h; concentration- and time-dependent
Method: (§1) DLBCL cell lines were treated with various concentrations of cerdulatinib for up to 72 h. The metabolic activities of cells were determined with MTT assay according to manufacturer's instruction (Roche Applied Science, Indianapolis, IN) at 72 h time point. IC50 was calculated using the Sigma Plot generated with GraphPad Prism 6 software (GraphPad, La Jolla, CA). Cell growth was measured at every 24 h counting live cells with flow cytometry as previously described. Cells were collected every 24 h and cell viability was determined by the PE Annexin V Apoptosis Detection Kit I (BD Biosciences).

RSK2 = details: biochemical assay; cited from earlier work
SYK = details: biochemical assay; cited from earlier work
FMS = details: biochemical assay; cited from earlier work
p-STAT3, p-AKT and p-ERK = assay: phospho-flow assay in anti-BCR stimulated primary DLBCL cells; format: cell-based, human; details: 0.5 μM or 1 μM, 6 h, then IgM/IgG 15 min, six primary DLBCL samples
Method: GCB cell lines OCI-LY1, OCI-LY4, OCI-LY8, OCI-LY18, SUDHL6 and VAL were cultured in Iscove's Modified Dulbecco's Medium (IMDM) supplemented with 20% Fetal Bovine Serum (FBS) and 100 μg/mL penicillin/streptomycin. ABC cell lines SUDHL2 and HBL1 were cultured in RPMI1640 supplemented with 20% FBS and 100 μg/mL penicillin/streptomycin. OCI-LY3 cells were grown in RPMI1640 supplemented with 20% FBS, 100 μg/ml penicillin/streptomycin and HEPES. ABC cell lines OCI-LY10 was cultured in Iscove's Modified Dulbecco's Medium (IMDM) supplemented with 20% human serum and 100 μg/mL penicillin/streptomycin. ABC cell line U2932 was cultured in high glucose RPMI1640 supplemented with 20% FBS, 100 μg/ml penicillin/streptomycin. All cells were maintained in a humidified 37°C/5% CO2 incubator. Frozen primary DLBCL cells were obtained from the tumor bank of the Department of Pathology at Weill Cornell Medical College after Institutional Review Board review and approval. All primary cells were thawed as previously described and cultured in above conditions at 37°C for 6 h in the presence or absence of cerdulatinib followed by BCR stimulations with 5 μg/mL of IgM and IgG. The clinical characteristics of these patients are listed in the Supplemental Table 1. Cerdulatinib was kindly provided by Portola Pharmaceuticals Inc. (South San Francisco, CA) and stored as 10 mM stock at −20°C. […]

24 kinases = details: biochemical assays, Table 1; read-out: IC50's against 24 kinases; cited from earlier work
LYN = details: cited from earlier work
RSK4 = details: biochemical assay; cited from earlier work
FLT3 = details: biochemical assay; cited from earlier work
JAK2 [1] = details: biochemical assay; cited from earlier work
RET = details: biochemical assay; cited from earlier work
[2] = test system: BCR-stimulated DLBCL cells; assay: BrdU S-phase analysis under BCR stimulation; format: cell-based; details: 3 μM, 48 h, anti-IgM and anti-IgG stimulation
Method: DLBCL cells were treated with various concentrations of cerdulatinib for 48 h. Cells were incubated with 10 μM BrdU (BD Biosciences, San Jose, CA) at 37°C for 2 h, and stained with PE conjugated anti-BrdU antibody (BD Biosciences) according to the supplier's manual. The percentage of cell cycle distribution was analyzed with FlowJo (Tree Star Inc. Ashland, OR).

PAR1B-α = details: biochemical assay; cited from earlier work
MST2 = details: biochemical assay; cited from earlier work
[3] = test system: panel of DLBCL cell lines; assay: MTT assay, whole panel; format: cell-based; details: all eleven DLBCL cell lines, 72 h
Method: as §1

JAK2 [4] = details: cited from earlier work
GCK = details: biochemical assay; cited from earlier work
[5] = test system: BCR-stimulated DLBCL cells; assay: annexin V / 7-AAD viability under BCR stimulation; format: cell-based; details: 3 μM, 48 h, anti-IgM and anti-IgG stimulation, all cell lines tested
Method: as §1

ZAP70 = details: cited from earlier work
[6] = test system: primary CLL cells with the BTK C481S mutation; details: cited from earlier work
[7] = test system: rat model of autoimmune disease; details: cited from earlier work

Question: Which results are given for `CCS(=O)(=O)N1CCN(c2ccc(Nc3ncc(C(N)=O)c(NC4CC4)n3)cc2)CC1` [cerdulatinib]?
Answer: IC50 (MST1): 4 nM; IC50 (TYK2): 0.5 nM; IC50 (CHK1): 42 nM; p-SYK level (p-SYK): significant reduction; IC50 (MARK1): 10 nM; IC50 (TSSK): 14 nM; cell viability (annexin V-/7-AAD-) (DLBCL cell lines): reduced; IC50 (RSK2): 20 nM; IC50 (SYK): 32 nM; IC50 (FMS): 5 nM; p-STAT3, p-AKT and p-ERK levels (p-STAT3, p-AKT and p-ERK): marked and simultaneous down-regulation; IC50 (24 kinases): < 200 nM; cellular activity against LYN (LYN): lacking cellular activity; IC50 (RSK4): 28 nM; IC50 (FLT3): 90 nM; IC50 (JAK2 [1]): 6 nM; IC50 (RET): 105 nM; S-phase of BCR-stimulated tumor cells [2]: sensitive; IC50 (PAR1B-α): 13 nM; IC50 (MST2): 15 nM; IC50 [3]: ≤ 2000 nM; cellular activity against JAK2 (JAK2 [4]): lacking cellular activity; IC50 (GCK): 18 nM; viability of stimulated DLBCL cells [5]: reduced; cellular activity against ZAP70 (ZAP70): lacking cellular activity; proliferation of ibrutinib-resistant cells [6]: completely blocking; inflammation [7]: reduces inflammation
